Where two headings read alike, the source gives them in different places.
Assays:
EP4 = biological target: T1, EP4 (Homo sapiens, UniProt P35408); assay: Functional calcium flux assay, EP4; assay type: cell-based; conditions: stably transfected HEK293 cells; PGE2 10 nM; read-out: EP4 Ca2+-flux assay IC50
T1 construct: host or cells: stably transfected HEK293 cells co-expressing a promiscuous G protein and a clytin variant
Description: Each receptor subtype has an additional promiscuous G protein added in order to couple the aforementioned receptor to the calcium signaling pathway. The parental cell line used also expresses a novel variant of clytin, a calcium-activated photo-protein, to enable sensitive luminescent detection. Briefly, cells were plated at 50,000 cells-per-well in black, clear bottom 96-well plates. The plated cells were allowed to sit at room temperature for 30 min prior to transferring to a humidified, 37° C., 5% CO2 incubator for 18 to 24 h. Assay buffer (HBSS with 20 mM HEPES) and loading buffer (assay buffer plus 10 μM coelenterazine) were prepared on the day of the assay. Assays were performed by aspirating media from the assay plate and washing once with assay buffer, then replacing with loading buffer and allowing the cells to incubate for 1.5 h at room temperature. Compounds were prepared in assay buffer at a 3× final concentration in non-binding plates. Compounds were added to the cell plates and incubated for 30 min at room temperature. The prostanoid receptor ligand PGE2 was prepared at a 4× dilution ratio for a final concentration of 10 nM. Plates were run on a Flexstation™ using a 100 ms integration luminescence protocol for a total of 60 sec with ligand addition at 15 sec. Data were obtained from relative light units as measured by area under the curve.

EP2 [1] = biological target: T2, EP2 (Homo sapiens, UniProt P43116);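 note: functional calcium flux assay in stably transfected HEK293 cells expressing EP2 coupled via a promiscuous G protein, clytin luminescence read as area under the curve, 30 min compound preincubation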
[2] = Relative activity of resolved enantiomers/diastereomers (assay not stated); conditions: compared with the other eluting peak
EP2 [3] = biological target: T2, EP2; assay: cell-based

T2 sequence (P43116 whole entry): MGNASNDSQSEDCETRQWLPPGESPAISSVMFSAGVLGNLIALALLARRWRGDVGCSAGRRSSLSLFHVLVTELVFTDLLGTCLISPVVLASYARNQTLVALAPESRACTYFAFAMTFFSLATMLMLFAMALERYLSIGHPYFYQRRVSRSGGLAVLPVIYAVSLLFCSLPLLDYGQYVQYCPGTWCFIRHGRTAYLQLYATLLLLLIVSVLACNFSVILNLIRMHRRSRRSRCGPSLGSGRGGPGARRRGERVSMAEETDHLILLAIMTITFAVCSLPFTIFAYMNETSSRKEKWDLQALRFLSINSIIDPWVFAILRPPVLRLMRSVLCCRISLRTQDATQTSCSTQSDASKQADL
T1 sequence (P35408 whole entry): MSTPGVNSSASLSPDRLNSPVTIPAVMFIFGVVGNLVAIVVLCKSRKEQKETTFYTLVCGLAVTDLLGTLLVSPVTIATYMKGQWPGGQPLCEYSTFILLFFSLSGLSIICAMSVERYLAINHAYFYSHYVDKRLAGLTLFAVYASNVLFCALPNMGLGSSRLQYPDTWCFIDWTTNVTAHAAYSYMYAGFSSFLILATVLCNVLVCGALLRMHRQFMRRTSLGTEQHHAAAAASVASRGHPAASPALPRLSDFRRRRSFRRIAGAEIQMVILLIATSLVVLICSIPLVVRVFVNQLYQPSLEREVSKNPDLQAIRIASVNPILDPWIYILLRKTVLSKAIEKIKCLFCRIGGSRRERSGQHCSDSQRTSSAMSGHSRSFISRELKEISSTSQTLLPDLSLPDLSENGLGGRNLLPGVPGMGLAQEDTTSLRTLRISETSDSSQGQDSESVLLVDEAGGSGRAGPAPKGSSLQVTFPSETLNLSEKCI

| Structure (SMILES) | IC50 (EP4) | IC50 (EP2 [1]) | IC50 (EP2 [3]) | more active enantiomer / diastereomer after chiral SFC resolution [2] |
| --- | --- | --- | --- | --- |
| CC(c1ccc(-c2ccccc2)cc1)n1ncc2cc(Cl)cc(C(=O)NC3CC4(C3)CC(C(=O)O)C4)c21 (single isomer, unassigned) [Example 174, (Sa)-6-(1-((R) or (S))-1-([1,1′-Biphenyl]-4-yl)ethyl)-5-chloro-1H-indazole-7-carboxamido)spiro[3.3]heptane-2-carboxylic acid] | 6.4 nM | < 25 nM | – | more active diastereomer |
| [2H]C1(C(=O)O)CC2(CC(NC(=O)c3ccc(F)c4ccn(Cc5ccc(-c6ccccc6)cc5)c34)C2)C1 (stereo not drawn) [Example 105, (Sa)-6-(1-([1,1′-Biphenyl]-4-ylmethyl)-4-fluoro-1H-indole-7-carboxamido)-2-deuterospiro[3.3]heptane-2-carboxylic acid] | – | – | – | more active enantiomer |
| O=C(NC1CC2(C1)CC(C(=O)O)C2)c1ccc(F)c2ccn(Cc3ccc(-c4ccccc4)cc3)c12 (stereo not drawn) [Example 9, (Sa)-6-(1-([1,1′-Biphenyl]-4-ylmethyl)-4-fluoro-1H-indole-7-carboxamido)spiro[3.3]heptane-2-carboxylic acid] | – | – | – | more active enantiomer |
| CC(c1ccc(-c2ccccc2)cc1)n1ncc2cccc(C(=O)NC3CC4(C3)CC(C(=O)O)C4)c21 (single isomer, unassigned) [Example 125, (Sa)-6-(1-((R) or (S)-1-([1,1′-Biphenyl]-4-yl)-ethyl)-1H-indazole-7-carboxamido)spiro[3.3]heptane-2-carboxylic acid] | < 1 nM | – | < 25 nM | more active diastereomer |
| O=C(NC1CC2(C1)CC(C(=O)O)C2)c1ccc(F)c2ccn(Cc3ccc(-c4ccncc4)cc3)c12 (stereo not drawn) [Example 24, (Sa)-6-(4-Fluoro-1-(4-(pyridin-4-yl)benzyl)-1H-indole-7-carboxamido)spiro[3.3]heptane-2-carboxylic acid] | – | – | – | more active enantiomer |
| COc1cc(-c2ccc(Cn3ncc4c(Cl)ccc(C(=O)NC5CC6(C5)CC(C(=O)O)C6)c43)cc2)ccn1 (stereo not drawn) [Example 78, (Sa)-6-(4-Chloro-1-(4-(2-methoxypyridin-4-yl)benzyl)-1H-indazole-7-carboxamido)spiro[3.3]heptane-2-carboxylic acid] | 4.4 nM | – | 99 nM | – |
| [2H]C([2H])([2H])C([2H])(c1ccc(-c2ccccc2)cc1)n1ncc2cccc(C(=O)NC3CC4(C3)CC(C(=O)O)C4)c21 (racemic) [Example 168, (Sa)-6-(1-((racemic)-1-([1,1′-Biphenyl]-4-yl)ethyl-1,2,2,2-d4)-1H-indazole-7-carboxamido)spiro[3.3]heptane-2-carboxylic acid] | 1.2 nM | – | 28 nM | – |
| O=C(NC1CC2(C1)CC(C(=O)O)C2)c1ccc(F)c2ccn(Cc3ccc(-c4ccccc4)c(F)c3)c12 (racemic) [Example 10, (racemic)-6-(4-Fluoro-1-((2-fluoro-[1,1′-biphenyl]-4-yl)methyl)-1H-indole-7-carboxamido)spiro[3.3]heptane-2-carboxylic acid] | < 1 nM | – | < 25 nM | – |

Further lines, with some results ahead:

| IC50 (EP4) | IC50 (EP2 [1]) | IC50 (EP2 [3]) | Structure (SMILES) | more active enantiomer / diastereomer after chiral SFC resolution [2] |
| --- | --- | --- | --- | --- |
| < 1 nM | – | 43 nM | O=C(NC1CC2(C1)CC(C(=O)O)C2)c1ccc(F)c2ccn(Cc3ccc(OC(F)(F)F)cc3)c12 (stereo not drawn) [Example 8, (Sa)-6-(4-Fluoro-1-(4-(trifluoromethoxy)benzyl)-1H-indole-7-carboxamido)spiro[3.3]heptane-2-carboxylic acid] | more active enantiomer |
| < 1 nM | – | < 25 nM | CC(C)(C)c1ccc(Cn2ccc3c(Cl)ccc(C(=O)NC4CC5(C4)CC(C(=O)O)C5)c32)cc1 (racemic) [Example 7, (racemic)-6-(1-(4-(tert-Butyl)benzyl)-4-chloro-1H-indole-7-carboxamido)spiro[3.3]heptane-2-carboxylic acid] | – |
| < 1 nM | – | < 25 nM | COc1cccc(-c2ccc(Cn3ccc4c(F)ccc(C(=O)NC5CC6(C5)CC(C(=O)O)C6)c43)cc2)c1 (racemic) [Example 14, (racemic)-6-(4-fluoro-1-((3′-methoxy-[1,1′-biphenyl]-4-yl)methyl)-1H-indole-7-carboxamido)spiro[3.3]heptane-2-carboxylic acid] | – |
| < 1 nM | – | < 25 nM | O=C(NC1CC2(C1)CC(C(=O)O)C2)c1ccc(F)c2ccn(Cc3ccc4cc(F)ccc4c3)c12 (racemic) [Example 5, (racemic)-6-(4-fluoro-1-((6-fluoronaphthalen-2-yl)methyl)-1H-indole-7-carboxamido)spiro[3.3]heptane-2-carboxylic acid] | – |

— US12215093B2, “Bicyclic carboxamides and methods of use thereof” (Tempest Therapeutics, Inc., priority 2018, dated 2025)
